Laboratory results as given in PubChem BioAssay (NCI).
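A five-concentration, 48-hour dose response in 96-well plates underlies each endpoint, interpolated linearly between surrounding concentrations. At the GI50, growth is halved. TGI: total growth inhibition.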

Legend:
Experiment in all cases: NCI-60 cell line screen, 48 h
[1] = tested on: DU-145 prostate
[2] = tested on: EKVX NSCLC
[3] = tested on: HOP-62 NSCLC
[4] = tested on: MALME-3M melanoma
[5] = tested on: NCI/ADR-RES ovarian
[6] = tested on: RPMI-8226 leukemia
[7] = tested on: SF-295 CNS
[8] = tested on: T-47D breast
[9] = tested on: UACC-257 melanoma
[10] = tested on: MDA-N

SMILES	GI50 [1] [µM]	TGI [1] [µM]	GI50 [2] [µM]	TGI [2] [µM]	GI50 [3] [µM]	TGI [3] [µM]	GI50 [4] [µM]	TGI [4] [µM]	GI50 [5] [µM]	TGI [5] [µM]	GI50 [6] [µM]	TGI [6] [µM]	GI50 [7] [µM]	TGI [7] [µM]	GI50 [8] [µM]	TGI [8] [µM]	GI50 [9] [µM]	TGI [9] [µM]	TGI [10] [µM]
COc1ccc2c3c(Nc4cccc(/C(C)=N\O)c4)[nH]c4ccccc4c-3c(N=O)c2c1	16	75.1	20.5	93.2	37.9	> 100	34.7	95.5	21.2	96.9	25.5	> 100	> 100	> 100	16.9	> 100	41	> 100	
O=C1C=CC2OC(c3ccccc3)C(O)C2O1 (stereo not given)				15.4		26		11.3		15.2		7.65		19.6				18.5	
O=C(Nc1ccc(Cl)cc1C(F)(F)F)C(=O)C1CCCS1(=O)=O (stereo not given)				> 100		> 100		> 100				> 100		> 100				> 100	
CCOC(=O)CC1COc2ccc3c(c21)OCO3 (stereo not given)				> 100		> 100		> 100				> 100		> 100				> 100	
COc1cc(OC)cc(-c2ccc(-c3ccc(C(=N)N)cn3)o2)c1	1.76	3.25					1.82	3.49	6.53	38.5	1.92	4.33	1.86	3.46			1.76	3.3	
Cc1cccc(Br)[n+]1[O-]		> 100		> 100		> 100		> 100		> 100		> 100		> 100		> 100		> 100	
CC(CCC[C@H](C)CO)[C@H]1[C@@H](O)C(O)C2[C@@H]3C[C@@H](O)C4(O)C[C@@H](O)CC[C@]4(C)C3CC[C@@]21C (stereo not given in full)				> 100		> 100		> 100				> 100		> 100				> 100	
CC(=O)OC(CC1(C)C(C)CCC23COC(=O)C2=CCCC31)c1ccoc1 (stereo not given)				97.6		85.3		55.2						> 100				72.5	
CCOC(=O)Cn1c2ccccc2c(=O)c2cc(C)c(C)c(C#N)c21				> 100		> 100		> 100				> 100		> 100				> 100	
CC(=O)Nc1ccc2nc(-c3ccccn3)c(-c3ccccn3)nc2c1		> 100		> 100				> 100		> 100		> 100		> 100				> 100	> 100
CC(CC(N)C(=O)O)C(=O)O (stereo not given)		> 100		> 100		> 100		> 100		> 100				> 100		> 100		> 100	> 100
CCc1c2c(cc3c1CC1(C3)Cc3cc4c(c(C(=O)OC)c3C1)CCCC4)CCCC2 (stereo not given)				83.9		> 100		> 100		> 100		> 100		> 100		> 100		> 100	> 100
O=P1(c2ccccc2)c2ccccc2-c2ccccc21		> 100		> 100		> 100						> 100		> 100				> 100	> 100
C=CCNC(=S)N1CC(C)C(=O)Nc2cc(Cl)ccc21 (stereo not given)				> 100		> 100		> 100				> 100		> 100				> 100	
COc1cc2c3cc1Oc1c(O)c(OC)cc4c1C(Cc1ccc(O)c(c1)Oc1ccc(cc1)CC3N(C)CC2)N(C)CC4 (stereo not given)				37.1		33.8		32.8				84.4		29.7				33.4	
CCOC(=O)C(=O)C=P(c1ccccc1)(c1ccccc1)c1ccccc1				> 100		> 100		> 100				> 100		> 100				> 100	
Cc1c[n+]2c3ccccc3c3ccccc3c2s1				> 100		28		7.87				57.8		33.5				18.3	
Nc1ccc2[nH]c(-c3cccc(C(F)(F)F)c3)cc(=O)c2c1	43.6	> 100		> 100		> 100		> 100		> 100		> 100						> 100	
